According to the supplement of paper PMC8837787:

Tested on: Saccharomyces cerevisiae ABC16-Green Monster
Test: growth inhibition at single dose (up to 150 µM), below the 70% cut-off for dose-response; higher = more potent
Conditions: 18 h; 30 °C; YPD
Procedure, shortened: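 Percent growth inhibition is the reported value. Drug-sensitive S. cerevisiae ABC16-Green Monster cultures in log phase (OD600 0.1–0.2), 200 µl per well in 96-well plates, received each library compound once at 150 µM in biological duplicates, with untreated cultures run alongside. Growth was followed by OD600 at 0 h and after 18 h at 30 °C. Dose-response was not done for compounds below 70% in both replicates.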

Row | SMILES | growth inhibition at single dose [%]
1 | COc1ccc(C2NCCc3c2[nH]c2ccccc32)cc1CN1CCN(c2ccc(F)cc2)CC1 (centres undefined) | < 70
2 | O=C(c1cc2ccccc2o1)N1CCN(Cc2ccc3c(c2)OCO3)CC1 | < 70
3 | CCn1cnc2c(Nc3cc(F)cc(F)c3)nc(C#N)nc21 | < 70
4 | CCc1cccc2c(C(=O)COC(=O)C34CC5CC(CC(O)(C5)C3)C4)c[nH]c12 | < 70
5 | Cc1ccc(C(=O)c2oc3ccc4c(C)cc(=O)oc4c3c2C)cc1 | < 70
6 | Oc1c(I)cc(I)c2cccnc12 | < 70
7 | Cc1nc(-c2ccccn2)nc(NCCc2ccc(S(C)(=O)=O)cc2)c1Cl | < 70
8 | COc1cc(Nc2ncnc3ccsc23)cc(OC)c1 | < 70
9 | O=C(Nc1ccccc1-c1nc2c(C(=O)O)cccc2o1)c1ccccc1 | < 70
10 | COc1cc(CNC(=O)c2scnc2C)ccc1OC1CCCC1 | < 70
11 | COc1ccc(S(=O)(=O)Nc2ccc(CN3CCN(C(=O)c4cccc(C#N)c4)CC3)cc2)cc1 | < 70
12 | Cc1cc(C(=O)Nc2nc3ccccc3s2)c(C)n1C(C)C | < 70
13 | COc1ccc(CNc2ncnc3ccccc23)cc1 | < 70
14 | Cc1ccc(/C=C/C(=O)NC2=NCCS2)c(Br)c1 | < 70
15 | CC(C)(C)c1ccc(C2CC3=Nc4ccccc4N(C(=O)c4ccccc4Cl)C(c4ccc(F)cc4)C3=C(O)C2)cc1 (centres undefined) | < 70
16 | COc1ccc(S(=O)(=O)N(Cc2cccs2)c2ccc3c(c2)OCCO3)cc1NC(C)=O | < 70
17 | CC(C)N=c1cc2n(-c3ccc(Cl)cc3)c3ccccc3nc-2cc1Nc1ccc(Cl)cc1 | < 70

Row | SMILES | growth inhibition at single dose [%]
18 | Cc1ccc(Oc2c(C)[nH]c(-c3ccccc3)nc2=O)cc1 | < 70
19 | CN(CC(=O)Nc1ccccc1N1CCCC1)Cc1ccc2ccccc2c1 | < 70
20 | CCN(CC)CCCNc1ccnc2cc3ccccc3cc12 | < 70
21 | c1ccc(-c2[nH]c3ccccc3c2C(c2ccccn2)N2CCCC2)cc1 (centres undefined) | < 70
22 | COC(=O)c1ccccc1NC(=O)/C=C/c1ccc(N2CCCS2(=O)=O)cc1 | < 70
23 | O=C(Nc1cc(Cl)cc(Cl)c1)Nc1cc(Cl)cc(Cl)c1 | < 70
24 | Cc1c(C)n(CCN(C)C)c2ncn3nc(-c4ccccc4O)nc3c12 | < 70
25 | O=C(NC1CCN(Cc2ccccc2)CC1)c1cc2nc(-c3ccc(Cl)s3)cc(C(F)(F)F)n2n1 | < 70
26 | CC(C)(C)n1nc(Cc2ccc(F)c(Cl)c2)c2c(N)ncnc21 | < 70
27 | CNc1snc(C)c1C(=O)NC(C)c1ccc(C(C)C)cc1 (centres undefined) | < 70
28 | CCN(CC)CCNc1ncnc2c1[nH]c1ccc(Br)cc12 | < 70
29 | CC(C)(C)n1ncc(C(=O)NCCOc2ccccc2)c1C(F)(F)F | < 70
30 | CCOC(=O)C1=C(C)N=c2sc(=Cc3cc(Cl)ccc3O)c(=O)n2C1c1ccc(OC)cc1 (centres undefined) | < 70
31 | CN1CCN(c2ccc(Cl)cc2NC(=O)c2cccc(Oc3ccccc3)c2)CC1 | < 70
32 | Nc1cccnc1Nc1ccc(Cl)cc1 | < 70
33 | OC1CCN(c2nn3cc(-c4ccccc4)nc3s2)CC1 | < 70
34 | CO[C@@H](C(=O)N1Cc2[nH]nc(NC(=O)c3ccc(N4CCN(C)CC4)cc3)c2C1)c1ccccc1 | < 70
